Results taken from ChEMBL document CHEMBL3507680, “University of Dundee, Gates Library screen for HepG2 cell viability”.

Assay: Human HepG2 cell viability assay in 384 well format
Assay type: toxicity, cell-based
Parameters: dose 125 nL, time 70.5 hour; concentration not given beside the values
Conditions: HepG2 cells, read-out: Inhibition

| SMILES | cytotoxicity at 70.5 h [%] |
| --- | --- |
| CC1CCCN(Cc2coc(-c3cccc(F)c3)n2)C1 (stereo unspecified) | -5.26 |
| CC(C)CCc1nc(CNCC2CCCN2c2cccnn2)cs1 (stereo unspecified) | 12.1 |
| Cc1nc(CN2CCCC2Cn2cncn2)no1 (stereo unspecified) | 13.1 |
| CC(C)Cc1nc(CN2CCCC2Cn2cncn2)no1 (stereo unspecified) | -7.43 |
| COCCc1noc(CN2CCCCC2Cn2cncn2)n1 (stereo unspecified) | -8.74 |
| CC(C)c1nc(CN2CCCC2Cn2cncn2)no1 (stereo unspecified) | 5.22 |
| CCc1nc(CNCC2CCCN2c2cccnn2)cs1 (stereo unspecified) | -6.05 |
| CC(C)c1nc(CNCC2CCCN2c2cccnn2)cs1 (stereo unspecified) | -8.04 |
| c1ccc(-c2nc(CN3CCCC3Cn3cncn3)no2)cc1 (stereo unspecified) | -13.3 |
| Cc1ncsc1C(=O)N(C)Cc1ccsc1 | -12.2 |
| CCN(CC1COc2ccccc2O1)C(=O)NCCCn1cncn1 (stereo unspecified) | -10.8 |
| O=C(Cn1nc(-c2ccc(F)cc2)oc1=O)NCCc1ccccc1 | -10.7 |
| Cc1nn(C)c(C)c1C(=O)NCc1ccnc(OCC(F)(F)F)c1 | -4.39 |
| COCCn1cc(NC(=O)NCC(c2cccc(F)c2)N(C)C)cn1 (stereo unspecified) | -2.22 |
| Cc1cc(C)n(-c2ccc(CNCc3ccc(C)o3)cn2)n1 | -7.08 |
| CCn1cc(NC(=O)NCC(c2ccsc2)N(C)C)cn1 (stereo unspecified) | -6.99 |
| O=C(Nc1ccncc1)N(CCO)Cc1ccsc1 | -20 |
| COc1ccc(OC2CCN(C(=O)c3ccc(C)[nH]c3=O)CC2)cc1 | -5.37 |
| CCN(CC1COc2ccccc2O1)C(=O)CCn1cncn1 (stereo unspecified) | -5.89 |
| Cc1oncc1C(=O)NCc1ccnc(OCC(F)(F)F)c1 | 11 |
| NC(=O)c1cnn2c1NCC(CNCCOc1ccccc1)C2 (stereo unspecified) | -5.14 |
| CC(=O)NCc1ccc(C(=O)NC2CCc3nc(C)cn3C2)o1 (stereo unspecified) | -3.32 |

| SMILES | cytotoxicity at 70.5 h [%] |
| --- | --- |
| Cc1nc(CN2CCN(C(=O)NC(C)Cn3ccnc3)CC2)cs1 (stereo unspecified) | -0.978 |
| COc1c(CNC(c2ccccc2)c2nccn2C)c(C)nn1C (stereo unspecified) | -0.0475 |
| COCC(=O)NC(C)Cc1ccc(Br)cc1 (stereo unspecified) | 2.28 |
| Cc1cc(C)cc(C(=O)Nc2cn[nH]c2)c1 | -8.68 |
| COCC(=O)NC(C)Cc1cccc(Cl)c1 (stereo unspecified) | 5.75 |
| CCN(Cc1ccc2c(c1)OCO2)C(=O)c1cccnc1O | -5.82 |
| CN(Cc1ccc(O)cc1)C(=O)NC1CCCN(c2ncccn2)C1 (stereo unspecified) | -3.14 |
| CC1CCCN(C(=O)NCCCn2cncn2)C1 (stereo unspecified) | -4.06 |
| CC(Cn1ccnc1)NC(=O)N1CCN(Cc2ccsc2)CC1 (stereo unspecified) | -2.59 |
| CN1CCCC1CNC(=O)CCCOc1ccc(Cl)cc1 (stereo unspecified) | -2.04 |
| O=C(CCc1nc2ccccc2[nH]1)N1CCCC(n2cccn2)C1 (stereo unspecified) | 2.61 |
| Cc1occc1C(=O)Nc1cnn(CCN2CCOCC2)c1 | 16.8 |
| O=C(CCS(=O)(=O)c1ccccc1)N1CCCC(n2cccn2)C1 (stereo unspecified) | -2.57 |
| Cc1ccccc1C(=O)Nc1cnn(CCN2CCOCC2)c1 | 5.4 |
| CNc1nc(CNC(=O)Nc2ccccc2C(F)(F)F)cs1 | -2.38 |
| CNc1nc(CNC(=O)Nc2cccc(Cl)c2OC)cs1 | -3.54 |
| Cc1nc(C2CCCN2CCS(C)(=O)=O)no1 (stereo unspecified) | 21.3 |
| COc1ccc(CNCc2c(C(C)C)nn(C)c2OC)cn1 | -0.773 |
| CSCCCN1CCCC1c1noc(C(C)C)n1 (stereo unspecified) | -0.353 |
| Cc1cc(C)n(CC2CN(CC(=O)Nc3c(C)n[nH]c3C)CCO2)n1 (stereo unspecified) | -8.05 |
| O=c1oc(-c2ccc(F)cc2)nn1CN1CCN(C2CCCC2)CC1 | -9.32 |
| Cn1ccc(CN2CCC(c3ccccc3)CC2)cc1=O | -8.13 |

| SMILES | cytotoxicity at 70.5 h [%] |
| --- | --- |
| c1ccc(-c2nc(CNC3CCc4ncnn4C3)co2)cc1 (stereo unspecified) | 1.4 |
| Cc1cc(C[S+]([O-])CC(=O)Nc2c(C)cccc2C)no1 (stereo unspecified) | -8.27 |
| Cc1cc(C[S+]([O-])CC(=O)NCc2cccs2)no1 (stereo unspecified) | -4.91 |
| COc1ccc(-c2nc(CN3CCCC3Cn3cccn3)no2)cc1 (stereo unspecified) | -0.173 |
| CC(C(=O)NCc1ccc(N2CCNC(=O)C2)cc1)n1cncn1 (stereo unspecified) | 4.32 |
| CC1CN(Cc2nccn2C)CCN1c1ccc2nncn2n1 (stereo unspecified) | 6.8 |
| COc1cccc(CN2CCN(c3ccc4nncn4n3)C(C)C2)c1 (stereo unspecified) | 9.6 |
| Cc1cc(C(=O)NCCN2CCCC(C)C2)nn1C (stereo unspecified) | -5.9 |
| CC(C)(C)c1cnc(CN2CCC[C@H]2CO)o1 | 0.665 |
| CCc1csc(C2CCCN(C(=O)C3=NN(CC)C(=O)CC3)C2)n1 (stereo unspecified) | 3.39 |
| CC(C)(C)c1nc(CN2CCCC2CCc2ccccc2)no1 (stereo unspecified) | 13.1 |
| COc1c(C2CCCN2C(=O)c2csc(C(C)C)n2)c(C)nn1C (stereo unspecified) | -12.3 |
| CC(C)c1nc(C2CCCN2CCc2ccncc2)no1 (stereo unspecified) | 16.2 |
| Cc1nc(C)n(C2CCCN(C(=O)CCCOc3ccccc3)C2)n1 (stereo unspecified) | 3.66 |
| Cc1cnn(C2CN(Cc3nc(C(C)(C)C)no3)C2)c1 | 20.7 |
| CCn1cnnc1CNC(=O)N1CCN(c2cccc(OC)c2)CC1 | -6.51 |
| CCOC(=O)N1CCN(Cc2ccc(OCc3nccn3C)cc2)CC1 | 1.77 |
| Cn1ncc2c(=O)[nH]c(CN(Cc3cccc(F)c3)C3CC3)nc21 | 1.56 |
| COc1ccccc1C(O)CNCc1c(C(C)C)nn(C)c1N(C)C (stereo unspecified) | 13.7 |
| COC(=O)c1cccn1C1CCN(C(=O)c2cc(C)ccc2O)CC1 | 2.48 |
| COC(=O)c1cccn1C1CCN(C(=O)c2cc(F)ccc2F)CC1 | -1.51 |
| CC(C)Cc1cc(NC(=O)c2ccc(=O)[nH]n2)n(C)n1 | -2.14 |

| SMILES | cytotoxicity at 70.5 h [%] |
| --- | --- |
| Cc1ccc(N(C)C2CCN(C(=O)c3ccsc3)CC2)nn1 | -13.8 |
| Cc1ccc(NC2CCN(C(=O)c3cccn3C)CC2)nn1 | 32.5 |
| Cc1ccc(NC2CCN(C(=O)c3ccsc3)CC2)nn1 | -3.84 |
| CCc1nccn1C1CCCN(C(=O)c2ccc3nncn3c2)C1 (stereo unspecified) | -6.04 |
| NC(=O)c1cc(C2CCCN(C(=O)CCc3ccsc3)C2)n[nH]1 (stereo unspecified) | -2.62 |
| CCn1cc(CN2CCCN(C(=O)CCCn3cncn3)CC2)cn1 | 1.08 |
| CCc1cnc(CNc2ccc(C(=O)N3CCCC(C)C3)cc2C)o1 (stereo unspecified) | -10.4 |
| O=C(CCc1cscn1)N1CCCC(c2ccn[nH]2)C1 (stereo unspecified) | -8.08 |
| CN(Cc1nc(N)c2ccccc2n1)C1CCCN(c2cccnn2)C1 (stereo unspecified) | -5.77 |
| CCc1nccn1C1CCCN(C(=O)c2ccc3c(c2)OCO3)C1 (stereo unspecified) | -6.7 |
| Cc1cc(C(=O)N2CCCCC2C)ccc1NCCCO (stereo unspecified) | -17.1 |
| CCN(C(=O)CN(C)C(c1cccc(F)c1)c1ccccn1)C1CC1 (stereo unspecified) | -5.47 |
| Cc1nn(C)c(C)c1C1COCCN1C(=O)c1cnc(N)c(Cl)c1 (stereo unspecified) | -3.52 |
| Cc1cccc(CC(=O)NCCCOC(C)C)c1 | -10.5 |
| CCOCC(O)CN1CCN(C(=O)c2ccc(OC)cc2F)CC1 (stereo unspecified) | -21.8 |
| Cc1nc(C2CCCN(C(=O)CCCn3cccn3)C2)no1 (stereo unspecified) | -11.8 |
| Cc1noc(CN2CCN(Cc3cccs3)CC2)n1 | -25.4 |
| CNS(=O)(=O)Cc1ccc(CNc2cncc(-n3cccn3)n2)cc1 | -18.1 |
| CN(Cc1ccsc1)C(=O)c1cccc(NS(C)(=O)=O)c1 | -7.22 |
| Cc1cccc(CS(=O)(=O)CC(=O)NCCCOC(C)C)c1 | 16.8 |
